{"source": "paper PMC8604796", "about": "(Computers in Biology and Medicine, 2021)", "key": {"SARS-CoV-2 PLpro": {"target": "SARS-CoV-2 PLpro (Severe acute respiratory syndrome coronavirus 2, UniProt P0DTD1)", "assay": "biochemical"}, "SARS-CoV-2 virus": {"test_system": "SARS-CoV-2 virus", "conditions": "read-out: IC50, in-vitro antiviral activity against the SARS-CoV-2 virus; cited from earlier work"}}, "note": "Read-outs that look alike come from different tables or passages of the source. Numbered stars: 1 amine (or outer) side, 2 acyl side, 3 side chain; on linkers, the order of the positions; unused ones are H or OH. Bridge positions count the residues as written; N and C are the ends. Square brackets hold non-standard residues; d marks the D form. Peptide text beside a SMILES is read from it. * marks the point of attachment. pTerphenylCO(4''-OnC5H11) = CCCCCOc1ccc(-c2ccc(-c3ccc(C(=O)*)cc3)cc2)cc1; Orn(4R-OH,5R-OH) = O=C([C@H](C[C@@H](O)[C@@H](O)N[*:3])N[*:1])[*:2]; hTyr(3S-OH,4S-OH) = N[C@H](C(=O)O)[C@H](O)[C@@H](O)c1ccc(O)cc1; Pro(3S-OH,4S-Me) = C[C@H]1CN[C@H](C(=O)O)[C@H]1O; Hyp = O=C(O)[C@@H]1C[C@@H](O)CN1"}
{"smiles": "CCCCCOc1ccc(-c2ccc(-c3ccc(C(=O)N[C@H]4C[C@@H](O)[C@@H](O)NC(=O)[C@@H]5[C@@H](O)[C@@H](C)CN5C(=O)[C@H]([C@@H](C)O)NC(=O)[C@H]([C@H](O)[C@@H](O)c5ccc(O)cc5)NC(=O)[C@@H]5C[C@@H](O)CN5C(=O)[C@H]([C@@H](C)O)NC4=O)cc3)cc2)cc1", "note": "[Anidulafungin] ({pTerphenylCO(4''-OnC5H11)}-[Orn(4R-OH,5R-OH)]T[Hyp][hTyr(3S-OH,4S-OH)]T[Pro(3S-OH,4S-Me)]; lactam 1-C)", "values": [{"measurement": "inhibitory activity against PLpro (in words)", "setting": "SARS-CoV-2 PLpro; Ubiquitin-Rhodamine 110 Gly fluorescence intensity assay", "value": "low inhibitory activity"}, {"measurement": "IC50", "setting": "SARS-CoV-2 virus", "value": 4.64, "unit": "µM"}]}
{"smiles": "Cc1cc2nc3c(=O)[nH]c(=O)nc-3n(C[C@H](O)[C@H](O)[C@H](O)COP(=O)(O)OP(=O)(O)OC[C@H]3O[C@@H](n4cnc5c(N)ncnc54)[C@H](O)[C@@H]3O)c2cc1C", "note": "[FAD disodium]", "values": [{"measurement": "IC50", "setting": "SARS-CoV-2 PLpro; read-out: IC50 against SARS-CoV-2 PLpro", "value": 12.4, "unit": "µM"}]}
{"smiles": "CC(C)(C)[C@@H]1NC(=O)O[C@@H]2CCC[C@H]2OC/C=C/C(F)(F)c2nc3ccccc3nc2O[C@@H]2C[C@@H](C(=O)N[C@]3(C(=O)NS(=O)(=O)C4(C)CC4)C[C@H]3C(F)F)N(C2)C1=O", "note": "[Glecaprevir]", "values": [{"measurement": "IC50", "setting": "SARS-CoV-2 PLpro", "value": 36.8, "unit": "µM"}]}
{"smiles": "CO[C@H]1/C=C/O[C@@]2(C)Oc3c(C)c(O)c4c(O)c(c(/C=N/N5CCN(C6CCCC6)CC5)c(O)c4c3C2=O)NC(=O)/C(C)=C\\C=C\\[C@H](C)[C@H](O)[C@@H](C)[C@@H](O)[C@@H](C)[C@H](OC(C)=O)[C@@H]1C", "note": "[Rifapentine]", "values": [{"measurement": "IC50", "setting": "SARS-CoV-2 PLpro", "value": 15.2, "unit": "µM"}]}
